The results in this text go back to publication PMC9189845, “Structure–Activity Relationships of 8-Hydroxyquinoline-Derived Mannich Bases with Tertiary Amines Targeting Multidrug-Resistant Cancer” (Journal of Medicinal Chemistry, 2022).

Like-named read-outs stand apart in the source and are kept apart here.

One assay deals with MES-SA cells. Nature of the assay: PrestoBlue viability assay, MES-SA cells. As to conditions: for pIC50 value MES-SA: MES-SA cells, without TQ.
Another assay has as its system MES-SA/Dx5 cells. The assay is described as follows: PrestoBlue viability assay, MES-SA/Dx5 cells (MDR, P-gp positive). As to conditions: for SR: selectivity ratio MES-SA vs MES-SA/Dx5, without TQ; for pIC50 value MES-SA/Dx5: MES-SA/Dx5 cells, without TQ; for SR_TQ: selectivity ratio MES-SA vs MES-SA/Dx5, with TQ.
Setting [1] is: Homo sapiens, MES-SA, 72 h, read-out: IC50 / μM MES-SA, absence of TQ, 72 h incubation.
Setting [2] is: Homo sapiens, MES-SA, read-out: pIC50 value MES-SA, MES-SA cells, without TQ (converted).
[3] abbreviates: Homo sapiens, MES-SA/Dx5, 72 h, read-out: IC50 / μM MES-SA/Dx5, absence of TQ, 72 h incubation.
Setting [4] is: Homo sapiens, MES-SA/Dx5, read-out: pIC50 value MES-SA/Dx5, MES-SA/Dx5 cells, without TQ (converted).
Where [5] appears, read: read-out: IC50 / μM MES-SA, absence of TQ, 72 h incubation.
Setting [6] is: read-out: IC50 / μM MES-SA/Dx5, absence of TQ, 72 h incubation.
Where [7] appears, read: Homo sapiens, MES-SA, read-out: pIC50 value MES-SA+TQ, MES-SA cells, with TQ (converted).
The mark [8] stands for this setting: Homo sapiens, MES-SA/Dx5, read-out: pIC50 value MES-SA/Dx5 + TQ, MES-SA/Dx5 cells, with TQ (converted).

As for `Oc1c(C(c2ccncc2)N2CCCC2)ccc2cccnc12` (stereo not drawn) [Compound 86], the IC50 is 5.99 ± 0.88 µM in the assay with MES-SA cells (setting [1]), 5.89 µM in the assay with MES-SA cells (setting [2]), 3.66 ± 0.45 µM in the assay with MES-SA/Dx5 cells (setting [3]) and 3.63 µM in the assay with MES-SA/Dx5 cells (setting [4]). Besides, the SR in the assay with MES-SA/Dx5 cells stood at 1.64.
As to `Oc1c(C(c2ccc(Cl)cc2)N2CCCC2)ccc2cccnc12` (stereo not drawn) [Compound 87], the “pIC50 value MES-SA” value in the assay with MES-SA cells is listed as 4.71. In the assay with MES-SA cells (setting [5]), the IC50 worked out at 19.7 ± 2.25 µM. Besides, in the assay on MES-SA/Dx5 cells, the “pIC50 value MES-SA/Dx5” value was determined as 5.18, the SR_TQ is 1.35 and the SR is recorded as 3. The IC50 in the assay on MES-SA/Dx5 cells (setting [6]) amounted to 6.58 ± 0.53 µM.
Turning to `Cc1ccc(C(c2cc(Cl)c3cccnc3c2O)N2CCCC2)cc1` (stereo not drawn) [Compound 91], the IC50 was 13.2 ± 3.09 µM in the assay on MES-SA cells (setting [1]); 8.91 µM in the assay with MES-SA cells (setting [7]); 12.9 µM in the assay with MES-SA cells (setting [2]); 6.06 ± 2.21 µM in the assay on MES-SA/Dx5 cells (setting [3]); 2.34 µM in the assay on MES-SA/Dx5 cells (setting [8]); 5.62 µM in the assay with MES-SA/Dx5 cells (setting [4]). Further, the SR_TQ in the assay with MES-SA/Dx5 cells is reported as 3.8. The SR in the assay on MES-SA/Dx5 cells is listed as 2.18.
For `Oc1c(C(c2ccncc2)N2CCCCC2)ccc2cccnc12` (stereo not drawn) [Compound 93], in the assay on MES-SA cells, the “pIC50 value MES-SA” value is 4.81. Besides, in the assay with MES-SA cells (setting [5]), the IC50 was determined as 16.2 ± 4.33 µM. Moreover, in the assay on MES-SA/Dx5 cells, the “pIC50 value MES-SA/Dx5” value is 5.08, the SR_TQ stood at 1.1 and the SR is given as 1.93. For the same compound, the IC50 in the assay on MES-SA/Dx5 cells (setting [6]) amounted to 8.39 ± 1.09 µM.
For the compound `Oc1c(C(c2cccs2)N2CCCCC2)ccc2cccnc12` (stereo not drawn) [Compound 94], the IC50 is 8.88 ± 0.93 µM with MES-SA cells (setting [1]), 8.91 µM in the assay with MES-SA cells (setting [2]), 11.6 ± 0.94 µM with MES-SA/Dx5 cells (setting [3]) and 11.5 µM in the assay on MES-SA/Dx5 cells (setting [4]). Further, the SR in the assay on MES-SA/Dx5 cells was found to be 0.76.
`Oc1c(C(c2ccccc2Cl)N2CCCCC2)ccc2cccnc12` (stereo not drawn) [Compound 95]: in the assay on MES-SA cells, the “pIC50 value MES-SA” value was determined as 4.77. The IC50 with MES-SA cells (setting [5]) stood at 17.5 ± 4.45 µM. Also, in the assay on MES-SA/Dx5 cells, the “pIC50 value MES-SA/Dx5” value was determined as 5.04, the SR_TQ is on record as 2.75 and the SR worked out at 1.85. In the assay with MES-SA/Dx5 cells (setting [6]), the IC50 is 9.45 ± 2.11 µM.
Take `CC1CCN(C(c2ccncc2)c2ccc3cccnc3c2O)CC1` (stereo not drawn) [Compound 100]: the “pIC50 value MES-SA” value in the assay on MES-SA cells was found to be 4.78. The IC50 in the assay on MES-SA cells (setting [5]) is 17.1 ± 3.89 µM. Further, in the assay on MES-SA/Dx5 cells, the “pIC50 value MES-SA/Dx5” value is reported as 5.21, the “SR_TQ” value is 4.37 and the SR was 2.74. The IC50 in the assay on MES-SA/Dx5 cells (setting [6]) turned out to be 6.24 ± 1.17 µM.
On to `Oc1c(C(c2ccccc2)N2CCOCC2)ccc2cccnc12` (stereo not drawn) [Compound 102], for which the IC50 with MES-SA cells (setting [1]) was 21.4 ± 1.01 µM; in the assay with MES-SA cells (setting [2]) it was 21.4 µM; in the assay with MES-SA/Dx5 cells (setting [3]), 11.7 ± 1.15 µM; in the assay with MES-SA/Dx5 cells (setting [4]), 11.5 µM. Further, the SR with MES-SA/Dx5 cells was found to be 1.84.
For `Oc1c(C(c2ccccn2)N2CCOCC2)ccc2cccnc12` (stereo not drawn) [Compound 103], the IC50 in the assay with MES-SA cells (setting [1]) was 23.6 ± 3.13 µM; in the assay on MES-SA cells (setting [2]) it was 23.4 µM; in the assay on MES-SA/Dx5 cells (setting [3]) it was 14.6 ± 2.97 µM; with MES-SA/Dx5 cells (setting [4]) it was 14.1 µM. In addition, the SR in the assay with MES-SA/Dx5 cells was determined as 1.62.
As to `Oc1c(C(c2ccncc2)N2CCOCC2)ccc2cccnc12` (stereo not drawn) [Compound 104], the IC50 with MES-SA cells (setting [1]) was 15.2 ± 2.74 µM; with MES-SA cells (setting [7]), 21.9 µM; in the assay with MES-SA cells (setting [2]), 14.8 µM; in the assay on MES-SA/Dx5 cells (setting [3]) it was 7.14 ± 1.26 µM; in the assay with MES-SA/Dx5 cells (setting [8]), 15.1 µM; in the assay with MES-SA/Dx5 cells (setting [4]) it was 7.08 µM. In addition, the “SR_TQ” value with MES-SA/Dx5 cells was 1.45. Besides, the SR in the assay with MES-SA/Dx5 cells was 2.12.
As to `Oc1c(C(c2ccccc2Cl)N2CCOCC2)ccc2cccnc12` (stereo not drawn) [Compound 105], in the assay on MES-SA cells, the “pIC50 value MES-SA” value amounted to 4.73. In addition, the IC50 in the assay with MES-SA cells (setting [5]) is 18.45 ± 0.14 µM. In addition, in the assay with MES-SA/Dx5 cells, the “pIC50 value MES-SA/Dx5” value is reported as 4.79 and the SR came out at 1.13. Besides, in the assay on MES-SA/Dx5 cells (setting [6]), the IC50 came to 16.4 ± 1.02 µM.
Regarding `Oc1c(C(c2ccc(F)cc2)N2CCOCC2)ccc2cccnc12` (stereo not drawn) [Compound 106], in the assay with MES-SA cells, the “pIC50 value MES-SA” value is recorded as 4.51. Further, the IC50 in the assay with MES-SA cells (setting [5]) turned out to be 33.4 ± 13.2 µM. Also, in the assay with MES-SA/Dx5 cells, the “pIC50 value MES-SA/Dx5” value is recorded as 4.86, the “SR_TQ” value is given as 1.15 and the SR turned out to be 2.24. For the same compound, in the assay with MES-SA/Dx5 cells (setting [6]), the IC50 turned out to be 14.9 ± 6.17 µM.
`COc1ccc(C(c2ccc3cccnc3c2O)N2CCOCC2)cc1` (stereo not drawn) [Compound 107]: the “pIC50 value MES-SA” value in the assay with MES-SA cells was determined as 4.69. In addition, the IC50 in the assay with MES-SA cells (setting [5]) was 20.3 ± 1.7 µM. In the assay with MES-SA/Dx5 cells, the “pIC50 value MES-SA/Dx5” value was 4.81 and the SR is given as 1.29. Besides, the IC50 in the assay on MES-SA/Dx5 cells (setting [6]) amounted to 15.8 ± 2.97 µM.
Turning to `Oc1c(C(c2cccnc2)N2CCOCC2)cc(Cl)c2cccnc12` (stereo not drawn) [Compound 109], the IC50 in the assay with MES-SA cells (setting [1]) is 51 ± 2.48 µM; with MES-SA cells (setting [2]) it was 51.3 µM; in the assay on MES-SA/Dx5 cells (setting [3]), 32.9 ± 7.06 µM; in the assay with MES-SA/Dx5 cells (setting [4]), 32.4 µM. The SR in the assay with MES-SA/Dx5 cells was determined as 1.55.
In the case of `Oc1c(C(c2cccs2)N2CCOCC2)cc(Cl)c2cccnc12` (stereo not drawn) [Compound 110], the IC50 with MES-SA cells (setting [1]) is 7.97 ± 1.01 µM; in the assay with MES-SA cells (setting [2]) it was 7.94 µM; in the assay with MES-SA/Dx5 cells (setting [3]) it was 14 ± 0.42 µM; in the assay with MES-SA/Dx5 cells (setting [4]) it was 13.8 µM. Besides, the SR with MES-SA/Dx5 cells was found to be 0.57.
Turning to `CN1CCN(C(c2cccnc2)c2ccc3cccnc3c2O)CC1` (stereo not drawn) [Compound 111], the IC50 in the assay with MES-SA cells (setting [1]) is 54.8 ± 3.66 µM; in the assay with MES-SA cells (setting [2]), 55 µM; in the assay on MES-SA/Dx5 cells (setting [3]), 35.9 ± 4.93 µM; in the assay on MES-SA/Dx5 cells (setting [4]), 35.5 µM. For the same compound, the SR in the assay with MES-SA/Dx5 cells stood at 1.53.
Turning to `CN1CCN(C(c2ccncc2)c2ccc3cccnc3c2O)CC1` (stereo not drawn) [Compound 112], the IC50 in the assay on MES-SA cells (setting [1]) is 22.1 ± 2.7 µM; in the assay with MES-SA cells (setting [7]), 32.4 µM; in the assay on MES-SA cells (setting [2]), 21.9 µM; with MES-SA/Dx5 cells (setting [3]) it was 11 ± 2.12 µM; with MES-SA/Dx5 cells (setting [8]) it was 20.4 µM; in the assay with MES-SA/Dx5 cells (setting [4]) it was 10.7 µM. Also, the “SR_TQ” value with MES-SA/Dx5 cells was determined as 1.58. Also, in the assay with MES-SA/Dx5 cells, the SR was 2.02.
